Source: US20260184663A1, “INDENE COMPOUNDS, PHARMACEUTICAL COMPOSITIONS THEREOF, AND THEIR THERAPEUTIC APPLICATIONS” (NucMito Pharmaceuticals co. Ltd., priority 2022, published 2026)
Read-outs that look alike come from different tables or passages of the source.

Columns and labels:
Assay type in all cases: cell-based
[1] = tested on: MDA-MB-231 (breast cancer); test: Antiproliferative activity (CCK-8 cell viability), MDA-MB-231; conditions: Homo sapiens, 72 h, read-out: Antiproliferative activity in cancerous cells, MDA-MB-231 (inhibition of cell growth); for inhibition at 3.3 µM: Compound concentration: 3.3 μM; for inhibition at 10 µM: Compound concentration: 10 μM; for inhibition at 30 µM: Compound concentration: 30 μM
In short: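 Growth inhibition of human MDA-MB-231 breast cancer cells was assessed with a Cell Counting Kit-8. Cells cultured in DMEM plus 10% FBS were seeded at 2,000-5,000 cells/well, treated after attachment, and kept 72 h at 37° C. CCK-8 solution (10 μL) was added for 4 h, and absorbance at 450 nm was compared with DMSO-treated controls.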

[2] = tested on: HepG2 (liver cancer); test: Antiproliferative activity (CCK-8 cell viability), HepG2; conditions: Homo sapiens, 72 h, read-out: Antiproliferative activity in cancerous cells, HepG2 (inhibition of cell growth); for inhibition at 3.3 µM: Compound concentration: 3.3 μM; for inhibition at 10 µM: Compound concentration: 10 μM; for inhibition at 30 µM: Compound concentration: 30 μM
In short: (§1)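 Growth inhibition graded in bands from percent viability against DMSO vehicle, read as CCK-8 absorbance at 450 nm. Compound tested at 3.3, 10 or 30 μM for 72 h, 37 °C; media contained 10% FBS: DMEM for HepG2/SW480, MEM for HeLa, F-12K for A549.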

[3] = tested on: SW480 (colon cancer); test: Antiproliferative activity (CCK-8 cell viability), SW480; conditions: Homo sapiens, 72 h; for inhibition at 3.3 µM: Compound concentration: 3.3 μM; for inhibition at 10 µM: Compound concentration: 10 μM; for inhibition at 30 µM: Compound concentration: 30 μM
In short: as §1

[4] = tested on: B16F10 (malignant melanoma); test: Antiproliferative activity (CCK-8 cell viability), B16F10; conditions: Mus musculus, 72 h, read-out: Antiproliferative activity in cancerous cells, B16F10 (inhibition of cell growth); for inhibition at 3.3 µM: B16-F10, Compound concentration: 3.3 μM; for inhibition at 10 µM: B16-F10, Compound concentration: 10 μM; for inhibition at 30 µM: B16-F10, Compound concentration: 30 μM
In short: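 Cell growth inhibition was measured in B16F10 malignant melanoma cells with a Cell Counting Kit-8 viability assay. Cells were maintained in DMEM plus 10% fetal bovine serum, seeded at 2,000-5,000 cells/well in 96-well plates, and treated for 72 h at 37° C. Viability was expressed relative to DMSO-treated vehicle control wells.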

[5] = tested on: A431 (epidermoid carcinoma); test: Antiproliferative activity (CCK-8 cell viability), A431; conditions: Homo sapiens, 72 h; for inhibition at 3.3 µM: A-431, Compound concentration: 3.3 μM; for inhibition at 10 µM: A-431, Compound concentration: 10 μM; for inhibition at 30 µM: A-431, Compound concentration: 30 μM
In short: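 This growth inhibition assay used A431 cells maintained in Dulbecco's modified Eagle's medium plus 10% fetal bovine serum. Cells were seeded in 96-well plates, treated with compound for 72 h at 37° C., and then given 10 μL CCK-8 solution. After a further 4 h, absorbance was read at 450 nm.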

[6] = tested on: A549 (lung adenocarcinoma); test: Antiproliferative activity (CCK-8 cell viability), A549; conditions: Homo sapiens, 72 h, read-out: Antiproliferative activity in cancerous cells, A549 (inhibition of cell growth); for inhibition at 3.3 µM: Compound concentration: 3.3 μM; for inhibition at 10 µM: Compound concentration: 10 μM; for inhibition at 30 µM: Compound concentration: 30 μM
In short: as §1

[7] = tested on: HeLa (cervical cancer); test: Antiproliferative activity (CCK-8 cell viability), HeLa; conditions: Homo sapiens, 72 h, read-out: Antiproliferative activity in cancerous cells, HELA (inhibition of cell growth); for inhibition at 3.3 µM: Compound concentration: 3.3 μM; for inhibition at 10 µM: Compound concentration: 10 μM; for inhibition at 30 µM: Compound concentration: 30 μM
In short: as §1

[8] = read-out: Antiproliferative activity in cancerous cells, SW480 (inhibition of cell growth)
[9] = read-out: Antiproliferative activity in cancerous cells, A431 (inhibition of cell growth)

CC1=C(CC(=O)O)c2cc(F)ccc2/C1=C\c1cccc(C[S+]([O-])c2ccc(F)cc2)c1 (stereo not shown) [B50, (Z)-2-(5-Fluoro-1-(3-(((4-fluorophenyl)sulfinyl)methyl)benzylidene)-2-methyl-1H-inden-3-yl)acetic acid]
≥ 50%: inhibition at 10 µM [1] | inhibition at 3.3 µM [4] | inhibition at 10 µM [4]
< 30%: inhibition at 3.3 µM [2] | inhibition at 10 µM [2] | inhibition at 3.3 µM [3, 8] | inhibition at 3.3 µM [5, 9] | inhibition at 10 µM [5, 9] | inhibition at 3.3 µM [6] | inhibition at 10 µM [6] | inhibition at 3.3 µM [7]
30 to 50%: inhibition at 3.3 µM [1] | inhibition at 10 µM [3, 8] | inhibition at 30 µM ([5]; read-out: Antiproliferative activity in cancerous cells, A431) | inhibition at 10 µM [7]

CC1=C(CC(=O)O)c2cc(F)ccc2/C1=C\c1cccc(C2(c3ccccc3)SCCS2)c1 [C352, (Z)-2-(5-Fluoro-2-methyl-1-(3-(2-phenyl-1,3-dithiolan-2-yl)benzylidene)-1H-inden-3-yl)acetic acid]
30 to 50%: inhibition at 3.3 µM [1]
≥ 50%: inhibition at 10 µM [1] | inhibition at 30 µM [1] | inhibition at 10 µM [2] | inhibition at 30 µM [2] | inhibition at 10 µM [3, 8] | inhibition at 30 µM [3, 8] | inhibition at 10 µM [4] | inhibition at 30 µM [4] | inhibition at 10 µM [5, 9] | inhibition at 30 µM [5, 9] | inhibition at 10 µM [6] | inhibition at 30 µM [6] | inhibition at 10 µM [7] | inhibition at 30 µM [7]
< 30%: inhibition at 3.3 µM [2] | inhibition at 3.3 µM [3, 8] | inhibition at 3.3 µM [4] | inhibition at 3.3 µM [5, 9] | inhibition at 3.3 µM [6] | inhibition at 3.3 µM [7]

O=C(O)CC1=C(Cc2ccc(Oc3ccc(F)cc3)cc2)/C(=C/c2ccc(Oc3ccc(F)cc3)cc2)c2ccc(F)cc21 [A107, (Z)-2-(5-Fluoro-2-(4-(4-fluorophenoxy)benzyl)-1-(4-(4-fluorophenoxy)-benzylidene)-1H-inden-3-yl)acetic acid]
≥ 50%: inhibition at 3.3 µM [1] | inhibition at 10 µM [1] | inhibition at 3.3 µM [2] | inhibition at 10 µM [2] | inhibition at 3.3 µM [3, 8] | inhibition at 10 µM [3, 8] | inhibition at 3.3 µM [4] | inhibition at 10 µM [4] | inhibition at 3.3 µM [5, 9] | inhibition at 10 µM [5, 9] | inhibition at 3.3 µM [6] | inhibition at 10 µM [6] | inhibition at 3.3 µM [7] | inhibition at 10 µM [7]

CC1=C(CC(=O)O)c2cc(F)ccc2/C1=C\c1ccc(Oc2ccc(Cl)cc2)cc1 [C60, (Z)-2-(1-(4-(4-Chlorophenoxy)benzylidene)-5-fluoro-2-methyl-1H-inden-3-yl)acetic acid]
30 to 50%: inhibition at 30 µM ([3]; read-out: Antiproliferative activity in cancerous cells, SW480) | inhibition at 3.3 µM [4] | inhibition at 10 µM [4] | inhibition at 3.3 µM [6]
≥ 50%: inhibition at 3.3 µM [2] | inhibition at 10 µM [2] | inhibition at 3.3 µM [5, 9] | inhibition at 10 µM [5, 9] | inhibition at 10 µM [6] | inhibition at 3.3 µM [7] | inhibition at 10 µM [7]
< 30%: inhibition at 3.3 µM [1] | inhibition at 10 µM [1] | inhibition at 3.3 µM [3, 8] | inhibition at 10 µM [3, 8]

CC1=C(CC(=O)O)c2cc(F)ccc2/C1=C\c1ccc(COCc2ccc(C(F)F)cc2)cc1 [B152, (Z)-2-(1-(4-(((4-(Difluoromethyl)benzyl)oxy)methyl)benzylidene)-5-fluoro-2-methyl-1H-inden-3-yl)acetic acid]
30 to 50%: inhibition at 3.3 µM [3, 8] | inhibition at 3.3 µM [5, 9]
≥ 50%: inhibition at 10 µM [1] | inhibition at 10 µM [2] | inhibition at 10 µM [3, 8] | inhibition at 10 µM [4] | inhibition at 10 µM [5, 9] | inhibition at 10 µM [6] | inhibition at 10 µM [7]
< 30%: inhibition at 3.3 µM [1] | inhibition at 3.3 µM [2] | inhibition at 3.3 µM [4] | inhibition at 3.3 µM [6] | inhibition at 3.3 µM [7]

CC1=C(CC(=O)O)c2cc(F)ccc2/C1=C\c1ccc(CCOc2ccccc2)cc1 [B32, (Z)-2-(5-Fluoro-2-methyl-1-(4-(2-phenoxyethyl)benzylidene)-1H-inden-3-yl)acetic acid]
< 30%: inhibition at 3.3 µM [1] | inhibition at 10 µM [1] | inhibition at 3.3 µM [2] | inhibition at 3.3 µM [7]
≥ 50%: inhibition at 10 µM [2] | inhibition at 10 µM [4] | inhibition at 10 µM [5, 9] | inhibition at 10 µM [6] | inhibition at 10 µM [7]
30 to 50%: inhibition at 3.3 µM [3, 8] | inhibition at 10 µM [3, 8] | inhibition at 3.3 µM [4] | inhibition at 3.3 µM [5, 9] | inhibition at 3.3 µM [6]

COc1ccc(C(=O)c2ccc(/C=C3/C(C)=C(CC(=O)O)c4cc(F)ccc43)cc2)cc1 [C306, (Z)-2-(5-Fluoro-1-(4-(4-methoxybenzoyl)benzylidene)-2-methyl-1H-inden-3-yl)acetic acid]
30 to 50%: inhibition at 3.3 µM [2] | inhibition at 3.3 µM [3, 8] | inhibition at 10 µM [3, 8] | inhibition at 10 µM [6] | inhibition at 30 µM [6] | inhibition at 3.3 µM [7]
≥ 50%: inhibition at 3.3 µM [1] | inhibition at 10 µM [1] | inhibition at 30 µM [1] | inhibition at 10 µM [2] | inhibition at 30 µM [2] | inhibition at 30 µM [3, 8] | inhibition at 10 µM [4] | inhibition at 30 µM [4] | inhibition at 3.3 µM [5, 9] | inhibition at 10 µM [5, 9] | inhibition at 30 µM [5, 9] | inhibition at 10 µM [7] | inhibition at 30 µM [7]
< 30%: inhibition at 3.3 µM [4] | inhibition at 3.3 µM [6]

CC1=C(CC(=O)O)c2cc(F)ccc2/C1=C\c1ccc(COCc2ccc(C(C)C)cc2)cc1 [B150, (Z)-2-(5-Fluoro-1-(4-(((4-isopropylbenzyl)oxy)methyl)benzylidene)-2-methyl-1H-inden-3-yl)acetic acid]
< 30%: inhibition at 3.3 µM [2] | inhibition at 3.3 µM [4]
30 to 50%: inhibition at 3.3 µM [1] | inhibition at 3.3 µM [3, 8] | inhibition at 3.3 µM [6] | inhibition at 3.3 µM [7]
≥ 50%: inhibition at 10 µM [1] | inhibition at 10 µM [2] | inhibition at 10 µM [3, 8] | inhibition at 10 µM [4] | inhibition at 3.3 µM [5, 9] | inhibition at 10 µM [5, 9] | inhibition at 10 µM [6] | inhibition at 10 µM [7]

CC1=C(CC(=O)O)c2cc(F)ccc2/C1=C\c1cccc(Oc2ccc(C)cc2)c1 [C96, (Z)-2-(5-Fluoro-2-methyl-1-(3-(p-tolyloxy)benzylidene)-1H-inden-3-yl)acetic acid]
30 to 50%: inhibition at 3.3 µM [2] | inhibition at 3.3 µM [4] | inhibition at 10 µM [4] | inhibition at 3.3 µM [7]
< 30%: inhibition at 3.3 µM [1] | inhibition at 10 µM [1] | inhibition at 3.3 µM [3, 8] | inhibition at 10 µM [3, 8] | inhibition at 3.3 µM [6]
≥ 50%: inhibition at 10 µM [2] | inhibition at 3.3 µM [5, 9] | inhibition at 10 µM [5, 9] | inhibition at 10 µM [6] | inhibition at 10 µM [7]
